# Measurements taken from patent US8129402B2 (priority 2002, dated 2012).
# Target: PrP^sc in ScN2a-22L cells (Mus musculus, UniProt P04925)
# Assay type: cell-based
# Conditions: ScN2a-22L cells, NIH Image J quantification
# Sequence of PrP^sc in ScN2a-22L cells (P04925 23-230 limits assumed): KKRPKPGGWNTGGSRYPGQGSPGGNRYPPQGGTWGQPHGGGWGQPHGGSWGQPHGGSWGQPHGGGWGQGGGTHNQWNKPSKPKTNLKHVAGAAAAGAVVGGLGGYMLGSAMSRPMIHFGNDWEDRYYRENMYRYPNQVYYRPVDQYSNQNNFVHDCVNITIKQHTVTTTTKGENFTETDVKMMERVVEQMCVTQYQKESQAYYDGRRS
structure (smiles),measurement,value
CN(C)CCCN1c2ccccc2Sc2ccc(Cl)cc21 [chlorpromazine],inhibition of the accumulation of PrPsc (resistant to proteinase K),96%
